Data set [1] deals with PBMC. Put plainly: Viability assay (CellTiterGlo), PBMC. Format: cell-based. The following applies: human PBMC, range of tested concentrations. How it is done:
(§1) Viability Assay. As part of the secondary screen, cells were incubated for ˜20 hours in 384-well plates in a final volume of 45 μl growth medium at 37° C. The plate was equilibrated to room temperature, 15 μl of CellTiterGlo (Promega) was added to each well and luminescence was measured as described above. The viability assay with 18A was done in parallel to the viral infection assay for the same length of time. 18A was diluted using an HP D300 Digital Dispenser in a 96-well B&W isoplate and cells were added. After incubation of 26-30 hours (Cf2Th cells) or 40-44 hours (PBMC). 30 μl (Cf2Th cells) or 100 μl (PBMC) of CellTiterGlo was added and luminescence was measured as described above.
For orientation: Cellular ATP, detected with luciferase, serves as a proxy for viable cell number.

The subject of data set [2] is HIV-1JR-FLΔCT Env trimer (gp41 HR1). Put plainly: CD4-induced gp41 HR1 exposure, C34-Ig binding (flow cytometry). Particulars: 100 μM 18A prior to sCD4 addition; approx. 37% with sCD4 alone. The procedure:
Flow cytometry. […] After 48-72 hours, cells were detached with 5 mM EDTA/PBS and between 0.5-1 million cells were briefly incubated with various concentrations of 18A and then with or without the indicated concentrations of sCD4. C34-Ig (at a final concentration of 20 μg/ml) or a specified antibody (at final concentration of 1 μg/ml) was added to the cells. […] Cells were washed twice and analyzed with a BD FACSCanto II flow cytometer (BD Biosciences). For analysis of resistant mutants (FIG. 5e-g), the measurements were normalized for the level of sCD4 binding of each mutant, and the response of each mutant was further normalized to that of the wild-type HIV-1JR-FL E168K+N188AΔCT Env (herein designated WTKA). […] The sCD4 IC50/sCD4 binding ratio (FIGS. 4c and e) was calculated as follows. Binding of sCD4 to different envelope mutants was measured by flow cytometry and normalized first to 2G12 binding to account for potentially different Env expression levels, and then to sCD4 binding to the wild-type HIV-1JR-FL Env. The IC50 of sCD4 for inhibition of virus infection by each mutant Env was divided by the normalized sCD4 binding to Env-expressing cells to calculate the sCD4 IC50/sCD4 binding value.
(A flow cytometer gives signals particle by particle.)

The subject of data set [3] is HIV-1MN27. Put plainly: Viral infection assay, CXCR4-tropic virus, Cf2Th-CD4/CXCR4 cells. Format: cell-based. Particulars: HIV-1MN27, Cf2Th cells expressing CD4 and CXCR4.
Data set [4] has as its system A-MLV. Put plainly: Infection of human PBMC by control A-MLV. Format: cell-based, amphotropic murine leukemia virus. The following applies: range of tested concentrations. The procedure:
Peripheral blood mononuclear cells (PBMC). Human blood was purchased from Research Blood Components, who obtained a consent firm from each donor, according to the American Association of Blood Banks guidelines, PBMC were isolated from the whole blood using a Ficoll-Paque gradient (Ficoll-Paque PLUS, Amersham Biosciences) and activated at concentration of 10^6 live cells/ml for 3 days in RPMI-PBMC medium (RPMI-1640 supplemented with 20% FBS, 10% IL-2 (Hemagen, Columbia, Md.), 100 μg/ml primocin (InvivoGen, San Diego, Calif.)) with 4 μg/ml phytohemagglutinin (Sigma-Aldrich, St. Louis, Mo.). In some cases, cells were frozen, thawed and activated prior to the assay.
Viral infection assay. Each test compound was serially diluted in DMSO in a 96-well B&W isoplate (PerkinElmer, Boston, Mass.) using an HP D300 Digital Dispenser, to a final volume of 450 nl. DMSO was used as a control. […] The activity of the firefly luciferase, which was used as a reporter protein in the system, was measured with a Centro LB 960 luminometer (Berthold Technologies, Oak Ridge, Tenn.). One hundred microliters of assay buffer (15 mM MgSO4, 15 mM KH2PO4/K2HPO4 pH 7.8, 1 mM ATP and 1 mM DTT) was injected to each well, followed by a 50 μl injection of 1 mM Dluciferin potassium salt (BD Pharmingen, San Jose, Calif.); luminescence was measured for 2 sec. […]

The test system of data set [5] is Cf2Th-CD4/CXCR4 cells. Put plainly: Viability assay (CellTiterGlo), CD4/CXCR4-expressing target cells. Format: cell-based. The procedure:
as §1

Data set [6] has as its system HIV-1HXBc2. Put plainly: Cold inactivation of recombinant virus. Format: cell-based. Particulars: in the presence of 18A vs DMSO or unrelated compounds. How it is done: For washout experiments, different concentrations of 18A were incubated with the recombinant viruses at 37° C. for 20 minutes. The viruses were laid on a 20% sucrose cushion and ultracentrifuged at 30,000 RPM in an SW55 rotor for 1.5 hours at 4° C. After the supernatant was aspirated, viruses were suspended in 500-1000 μl medium and 90 μl of the virus suspension was used to infect 5000 Cf2Th-CD4/CCR5 cells (5 replicates). The cells were incubated for 48 hours and processed as described above. Sensitivity of recombinant viruses to cold inactivation was measured.

Usually IC50 stands for the concentration needed to halve the response being measured. A higher IC50 goes with weaker potency. A word on the CC50: it is the concentration that lowers cell viability or growth by half. Low readings indicate harm at low concentration, high ones better tolerance by the cells. In the case of `O=C(N/N=C/c1ccc(O)cc1)Nc1cccc2nsnc12` [Compound 18A], the “effect on viability of the cells” value in data set [1] was “No significant effect”. Moreover, the “cells binding C34-Ig” value in data set [2] amounted to 4.7%. Moreover, the IC50 in data set [3] is around 25 µM. Moreover, in data set [4], the “effect on A-MLV infection” value is “No significant effect”. In data set [5], this compound had a cytotoxic concentration (CC50) of 63 µM. The “sensitivity of virus to cold inactivation” value in data set [6] was “decreased sensitivity to cold inactivation”.

The values above are taken from patent US20170298056A1, “SMALL MOLECULE INHIBITORS OF HIV-1 ENTRY AND METHODS OF USE THEREOF” (Dana-Farber Cancer Institute, Inc., priority 2014, published 2017).
